Experimental findings from patent US10722514B2 (FLX Bio, Inc., priority 2017, dated 2020) are described below.

This test deals with T1, recombinant full-length USP7 (Homo sapiens, UniProt Q93009).
T1 construct: A 25 μl reaction volume containing recombinant full-length USP7 (62 pM)
The test can be described thus: USP7-mediated ubiquitin-rhodamine cleavage assay. The format is biochemical. As to conditions: recombinant full-length USP7 62 pM; ubiquitin-rhodamine 100 nM; 30-minute pre-incubation, 1 hour reaction at room temperature; read-out: Potency (USP7 IC50). Put shortly:
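After compound and enzyme (62 pM) sat together 30 min at RT, 100 nM fluorogenic ubiquitin-rhodamine substrate was added for 1 h protected from light. Acetic acid quenched the reaction prior to the fluorescence read.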

Counter-ions that a name gives are not always drawn. Bounds are passed on as bounds.

T1 sequence (Q93009 whole entry): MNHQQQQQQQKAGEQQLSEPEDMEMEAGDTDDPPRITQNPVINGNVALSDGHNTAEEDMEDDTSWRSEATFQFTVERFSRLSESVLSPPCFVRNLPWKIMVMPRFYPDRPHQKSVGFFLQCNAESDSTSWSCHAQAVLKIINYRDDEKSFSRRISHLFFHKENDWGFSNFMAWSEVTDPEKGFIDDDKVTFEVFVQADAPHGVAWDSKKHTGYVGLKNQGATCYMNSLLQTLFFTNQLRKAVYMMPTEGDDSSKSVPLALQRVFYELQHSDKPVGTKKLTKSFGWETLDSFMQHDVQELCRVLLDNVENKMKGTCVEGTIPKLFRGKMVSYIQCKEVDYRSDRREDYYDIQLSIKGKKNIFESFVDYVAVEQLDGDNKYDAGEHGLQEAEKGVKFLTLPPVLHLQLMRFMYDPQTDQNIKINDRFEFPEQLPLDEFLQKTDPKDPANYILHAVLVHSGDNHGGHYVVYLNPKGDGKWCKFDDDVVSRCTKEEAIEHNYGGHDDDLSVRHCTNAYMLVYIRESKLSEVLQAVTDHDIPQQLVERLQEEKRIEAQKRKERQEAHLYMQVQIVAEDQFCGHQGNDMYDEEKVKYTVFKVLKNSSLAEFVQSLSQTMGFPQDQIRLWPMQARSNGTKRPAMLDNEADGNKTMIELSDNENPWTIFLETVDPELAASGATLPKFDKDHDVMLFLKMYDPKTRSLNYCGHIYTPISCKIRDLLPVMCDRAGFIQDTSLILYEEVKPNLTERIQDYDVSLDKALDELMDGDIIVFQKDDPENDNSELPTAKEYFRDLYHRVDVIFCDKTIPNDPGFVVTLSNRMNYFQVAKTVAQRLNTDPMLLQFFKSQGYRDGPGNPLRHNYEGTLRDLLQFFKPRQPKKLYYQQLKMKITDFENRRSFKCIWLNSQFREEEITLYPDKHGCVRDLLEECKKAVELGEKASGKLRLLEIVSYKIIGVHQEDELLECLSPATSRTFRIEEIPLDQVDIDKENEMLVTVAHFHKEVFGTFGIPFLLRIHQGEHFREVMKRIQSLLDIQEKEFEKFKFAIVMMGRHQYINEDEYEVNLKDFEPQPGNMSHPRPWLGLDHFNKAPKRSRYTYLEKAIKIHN

For orientation: IC50 means the concentration needed to halve the response being measured. With `Cc1cc([N+](=O)[O-])cc(-c2ccnc3cc(Cn4c(=O)ccn(CC(F)(F)F)c4=O)sc23)c1Oc1cn[nH]c1` [Example 614], the IC50 is < 1 µM.

As to `Cc1cc(Cl)cc(-c2ccnc3cc(COc4nc(=O)ccn4CC(F)(F)F)sc23)c1O[C@H]1CNCC[C@H]1C` [Example 615, 2-[[7-[5-chloro-3-methyl-2-[[(3R,4R)-4-methyl-3-piperidyl]oxy]phenyl]thieno[3,2-b]pyridin-2-yl]methoxy]-1-(2,2,2-trifluoroethyl)pyrimidin-4-one], the IC50 is < 1 µM.

Take `Cc1cc(Cl)cc(-c2ccnc3cc(Cn4c(=O)ccn(CC(F)(F)F)c4=O)sc23)c1OC1CCNCC1(C)C` (stereo not drawn) [Example 616, 3-[[7-[5-chloro-2-[(3,3-dimethyl-4-piperidyl)oxy]-3-methyl-phenyl]thieno[3,2-b]pyridin-2-yl]methyl]-1-(2,2,2-trifluoroethyl)pyrimidine-2,4-dione; 2,2,2-trifluoroacetic acid]: the half-maximal inhibitory concentration (IC50) was < 1 µM.

Take `Cc1cc(Cl)cc(-c2ccnc3cc(Cn4c(=O)ccn(CC(F)(F)F)c4=O)sc23)c1OC1CCNCC12CC2` (stereo not drawn) [Example 617, 3-[[7-[2-(5-azaspiro[2.5]octan-8-yloxy)-5-chloro-3-methyl-phenyl]thieno[3,2-b]pyridin-2-yl]methyl]-1-(2,2,2-trifluoroethyl)pyrimidine-2,4-dione; 2,2,2-trifluoroacetic acid]: the half-maximal inhibitory concentration (IC50) was < 1 µM.

`Cc1cc(Cl)cc(-c2ccnc3cc(Cn4c(=O)ccn(CC(F)(F)F)c4=O)sc23)c1OC1(C)CCNCC1` [Example 618, 3-[[7-[5-chloro-3-methyl-2-[(4-methyl-4-piperidyl)oxy]phenyl]thieno[3,2-b]pyridin-2-yl]methyl]-1-(2,2,2-trifluoroethyl)pyrimidine-2,4-dione]: the IC50 is < 1 µM.

In the case of `CCN1C[C@H]2C[C@@H]1[C@H](Oc1c(C)cc(Cl)cc1-c1ccnc3cc(Cn4c(=O)ccn(CC(F)(F)F)c4=O)sc13)C2` [Example 619, 3-[[7-[5-chloro-2-[[(1S,4R,5R)-3-ethyl-3-azabicyclo[2.2.1]heptan-5-yl]oxy]-3-methyl-phenyl]thieno[3,2-b]pyridin-2-yl]methyl]-1-(2,2,2-trifluoroethyl)pyrimidine-2,4-dione], the IC50 was < 1 µM.

As for `Cc1cc(Cl)cc(-c2ccnc3cc(Cn4c(=O)ccn(CC(F)(F)F)c4=O)sc23)c1O[C@@H]1CNC[C@@H]1C(F)F` [Example 620, 3-[[7-[5-chloro-2-[(3S,4S)-4-(difluoromethyl)pyrrolidin-3-yl]oxy-3-methyl-phenyl]thieno[3,2-b]pyridin-2-yl]methyl]-1-(2,2,2-trifluoroethyl)pyrimidine-2,4-dione], the IC50 was < 1 µM.

For the compound `Cc1cc(Cl)cc(-c2ccnc3cc(Cn4c(=O)ccn(CC(F)(F)F)c4=O)sc23)c1O[C@@H]1CCCN[C@@H]1C` [Example 621, 3-[[7-[5-chloro-3-methyl-2-[[(2R,3R)-2-methyl-3-piperidyl]oxy]phenyl]thieno[3,2-b]pyridin-2-yl]methyl]-1-(2,2,2-trifluoroethyl)pyrimidine-2,4-dione; 2,2,2-trifluoroacetic acid], the concentration for half-maximal inhibition (IC50) was < 1 µM.

Turning to `Cc1cc(Cl)cc(-c2ccnc3cc(Cn4c(=O)ccn(CC(F)(F)F)c4=O)sc23)c1O[C@@H]1CCCN[C@H]1C` [Example 622, 3-[[7-[5-chloro-3-methyl-2-[[(2S,3R)-2-methyl-3-piperidyl]oxy]phenyl]thieno[3,2-b]pyridin-2-yl]methyl]-1-(2,2,2-trifluoroethyl)pyrimidine-2,4-dione; 2,2,2-trifluoroacetic acid], the half-inhibitory concentration (IC50) was < 1 µM.

Turning to `Cc1cc(Cl)cc(-c2ccnc3cc(Cn4c(=O)ccn(CC(F)(F)F)c4=O)sc23)c1O[C@@H]1CNC[C@H](F)C1` [Example 623, 3-[[7-[5-chloro-2-[[(3S,5R)-5-fluoro-3-piperidyl]oxy]-3-methyl-phenyl]thieno[3,2-b]pyridin-2-yl]methyl]-1-(2,2,2-trifluoroethyl)pyrimidine-2,4-dione; 2,2,2-trifluoroacetic acid], the IC50 is < 1 µM.

On to `Cc1cc(Cl)cc(-c2ccnc3cc(Cn4c(=O)ccn(CC(F)(F)F)c4=O)sc23)c1OC1CC(N2CCC[C@H]2CO)C1` (stereo partly drawn) [Example 624, 3-[[7-[5-chloro-2-[3-[(2S)-2-(hydroxymethyl)pyrrolidin-1-yl]cyclobutoxy]-3-methyl-phenyl]thieno[3,2-b]pyridin-2-yl]methyl]-1-(2,2,2-trifluoroethyl)pyrimidine-2,4-dione dihydrochloride], for which the IC50 is < 1 µM.

Regarding `Cc1cc(Cl)cc(-c2ccnc3cc(Cn4c(=O)ccn(CC(F)(F)F)c4=O)sc23)c1O[C@@H]1CNC[C@@H]1C` [Example 625, 3-[[7-[5-chloro-3-methyl-2-[(3S,4S)-4-methylpyrrolidin-3-yl]oxy-phenyl]thieno[3,2-b]pyridin-2-yl]methyl]-1-(2,2,2-trifluoroethyl)pyrimidine-2,4-dione], the IC50 was < 1 µM.

With `Cc1cc(Cl)cc(-c2ccnc3cc(Cn4c(=O)ccn(CC(F)(F)F)c4=O)sc23)c1O[C@H]1CNC[C@H]1C` [Example 626, 3-[[7-[5-chloro-3-methyl-2-[(3R,4R)-4-methylpyrrolidin-3-yl]oxy-phenyl]thieno[3,2-b]pyridin-2-yl]methyl]-1-(2,2,2-trifluoroethyl)pyrimidine-2,4-dione], the half-maximal inhibitory concentration (IC50) is < 1 µM.

Regarding `Cc1cc(Cl)cc(-c2ccnc3cc(Cn4c(=O)ccn(CC(F)(F)F)c4=O)sc23)c1O[C@H]1CNC[C@@H]1C` [Example 627, 3-[[7-[5-chloro-3-methyl-2-[(3R,4S)-4-methylpyrrolidin-3-yl]oxy-phenyl]thieno[3,2-b]pyridin-2-yl]methyl]-1-(2,2,2-trifluoroethyl)pyrimidine-2,4-dione], the IC50 is < 1 µM.

On to `Cc1cc(Cl)cc(-c2ccnc3cc(Cn4c(=O)ccn(CC(F)(F)F)c4=O)sc23)c1O[C@@H]1CNC[C@H]1C` [Example 628, 3-[[7-[5-chloro-3-methyl-2-[(3S,4R)-4-methylpyrrolidin-3-yl]oxy-phenyl]thieno[3,2-b]pyridin-2-yl]methyl]-1-(2,2,2-trifluoroethyl)pyrimidine-2,4-dione], for which the half-inhibitory concentration (IC50) was < 1 µM.

For `Cc1cc(Cl)cc(-c2ccnc3cc(Cn4c(=O)ccn(CC(F)(F)F)c4=O)sc23)c1O[C@H]1CCNC[C@@H]1C` [Example 629, 3-[[7-[5-chloro-3-methyl-2-[[(3S,4S)-3-methyl-4-piperidyl]oxy]phenyl]thieno[3,2-b]pyridin-2-yl]methyl]-1-(2,2,2-trifluoroethyl)pyrimidine-2,4-dione], the half-inhibitory concentration (IC50) is < 1 µM.

With `Cc1cc(Cl)cc(-c2ccnc3cc(Cn4c(=O)ccn(CC(F)(F)F)c4=O)sc23)c1O[C@@H]1C=C[C@@H](N)C1` [Example 630, 3-[[7-[2-[(1S,4S)-4-aminocyclopent-2-en-1-yl]oxy-5-chloro-3-methyl-phenyl]thieno[3,2-b]pyridin-2-yl]methyl]-1-(2,2,2-trifluoroethyl)pyrimidine-2,4-dione], the half-inhibitory concentration (IC50) was < 1 µM.

With `Cc1cc(Cl)cc(-c2ccnc3cc(Cn4c(=O)ccn(CC(F)(F)F)c4=O)sc23)c1OC1C=CCNC1` (stereo not drawn) [Example 631, 3-[[7-[5-chloro-3-methyl-2-(1,2,3,6-tetrahydropyridin-3-yloxy)phenyl]thieno[3,2-b]pyridin-2-yl]methyl]-1-(2,2,2-trifluoroethyl)pyrimidine-2,4-dione], the 50% inhibitory concentration (IC50) is < 1 µM.
